Experimental data as given in patent publication US20250090875A9, “IMMUNOSTIMULATORY COMPOUNDS AND CONJUGATES” (Seagen Inc., priority 2021, published 2025).

Legend:
hTLR7 = biological target: T1, hTLR7 (Homo sapiens, UniProt Q9NYK1); experiment: HEK Blue hTLR7 cell assay of free TLR7/8 agonists; assay type: cell-based; details: HEK Blue hTLR7 cells, free agonist
T1 construct: expressed in transfected cells; host or cells: HEK Blue hTLR7 cells
T1 sequence (Q9NYK1 27-1049): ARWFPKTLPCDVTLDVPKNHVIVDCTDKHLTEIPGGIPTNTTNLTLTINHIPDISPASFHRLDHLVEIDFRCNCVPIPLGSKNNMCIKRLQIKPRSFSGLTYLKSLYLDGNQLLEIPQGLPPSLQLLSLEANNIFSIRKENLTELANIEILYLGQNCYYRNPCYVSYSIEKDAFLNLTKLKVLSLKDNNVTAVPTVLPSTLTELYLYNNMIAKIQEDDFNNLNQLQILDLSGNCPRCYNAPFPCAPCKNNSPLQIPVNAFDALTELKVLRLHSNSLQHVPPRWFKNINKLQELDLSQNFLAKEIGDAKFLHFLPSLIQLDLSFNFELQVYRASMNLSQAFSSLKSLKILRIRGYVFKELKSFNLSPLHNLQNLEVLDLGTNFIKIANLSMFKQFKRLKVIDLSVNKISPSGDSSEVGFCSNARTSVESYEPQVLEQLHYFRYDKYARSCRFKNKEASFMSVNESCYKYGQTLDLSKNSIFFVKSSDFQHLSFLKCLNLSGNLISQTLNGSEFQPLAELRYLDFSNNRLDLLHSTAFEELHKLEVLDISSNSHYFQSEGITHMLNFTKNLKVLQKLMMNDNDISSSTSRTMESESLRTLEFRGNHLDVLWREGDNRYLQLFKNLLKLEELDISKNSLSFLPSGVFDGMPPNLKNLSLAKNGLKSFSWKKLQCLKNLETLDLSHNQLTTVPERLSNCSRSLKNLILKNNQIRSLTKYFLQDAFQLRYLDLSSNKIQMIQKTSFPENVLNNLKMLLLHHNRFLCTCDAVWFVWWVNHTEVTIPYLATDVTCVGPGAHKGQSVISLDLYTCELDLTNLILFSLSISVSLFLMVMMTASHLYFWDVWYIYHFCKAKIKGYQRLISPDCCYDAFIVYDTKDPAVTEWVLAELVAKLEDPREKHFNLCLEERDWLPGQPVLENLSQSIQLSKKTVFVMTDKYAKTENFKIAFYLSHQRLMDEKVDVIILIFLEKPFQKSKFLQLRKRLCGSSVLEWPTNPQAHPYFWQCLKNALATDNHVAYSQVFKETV
Protocol: This example covers toll-like receptor 7 (TLR7) and toll-like receptor 8 (TLR8) selectivity of imidazoquinoline agonists. Assessment of TLR7 and TLR8 selectivity for the free TLR7/8 agonists was performed using HEK Blue hTLR7 and hTLR8 cells over a large dose range of compounds. […] Activities were determined based on calculated EC50 (in μM) in each cell line, and are summarized in TABLE 4 below, with columns providing targets and rows providing compounds.

primary human PBMCs = experiment: Cytokine induction in primary human PBMCs by small molecule TLR7/8 agonists (Luminex); assay type: cell-based; details: free drug; for IFNα, IL1β, MIP1β, TNFα induction, C7 carboxylic acid vs parent C7 methyl ester: FIG. 3; for MIP1β and TNFα responses: FIG. 4, compared with Resiquimod or methyl ester counterpart
Protocol: This example covers dose dependent human immune cell activation by small molecule TLR7/8 agonists. Primary human PBMCs were isolated from peripheral whole blood from human donors and were subjected to treatment with increasing concentrations of the agonists diluted in PBS. Cell culture supernatants were harvested 24 h after treatment and analyzed for induction of cytokines via multiplex ELISAs (Luminex).
Several small molecule TLR7/8 agonists were assessed for their ability to activate human immune cells in a dose dependent manner. Primary human PBMCs were isolated from peripheral whole blood from human donors and were subjected to treatment with increasing concentrations of the agonists diluted in PBS. 24 h after treatment cell culture supernatants were harvested and analyzed for induction of cytokines via multiplex ELISAs (Luminex).

human immune cells = experiment: Cytokine induction in human immune cells by TLR7/8 agonist-antibody conjugates (Luminex); assay type: cell-based; details: ADC with immune-targeting antibody, FIGS. 6, 7, 8
Protocol: Cells were stimulated with the various TLR7/8 agonist-antibody conjugates at different concentrations, and resulting supernatants were harvested and analyzed using a multiplex analyte kit (Luminex).
Immune cells were treated with 5 μg/mL of an immune-targeting antibody, TLR agonist compounds, and antibody conjugated with different TLR agonist compounds (to thereby form ADCs with average drug:antibody ratios of about 8). FIG. 6 summarizes MIP1β (left panel) and TNFα (right panel) responses generated by untreated immune cells, a TLR agonist coupled to a non-targeting antibody (‘Non-targeted’), and TLR agonist compounds conjugated with immune-targeted antibodies (‘targeted cmpd’ 1-7). […] Targeted compounds 2, 4, 5, and 7 correspond to C7 carboxymethylated imidazoquinoline compounds coupled to immunostimulatory antibodies by cleavable linkers. Targeted compounds 3 and 6 correspond to C7 carboxylated imidazoquinoline compounds coupled to immunostimulatory antibodies by cleavable linkers. FIG. 7 provides dose-dependent IL12p40 (left panel) and IL1β (right panel) responses generated with non-targeted (i.e., coupled to an isotype antibody) and immune targeting antibody conjugated compounds, with ‘cmpd 9’ corresponding to a C7 carboxylated imidazoquinoline compound and ‘cmpo10’ corresponding to its C7 carboxymethyl analogue. FIG. 8 provides dose-dependent interleukin 6 (IL6, left panel) and TNFα (right panel) responses with ADCs comprising immune cell targeting antibodies coupled to either C7 carboxylated (cmpd 3, 8, 9) or C7 carboxymethylated (cmpd 4, 7, 10) imidazoquinoline compounds.
In order to ascertain whether the difference in activity of the N1 vs. C4 linked conjugates seen in the Renca model was due to variable potency, a dose range experiment was performed. The N1 and C4 linked targeted (ADC) and non-targeted conjugates were administered in a wide dose range (0.001 to 10 μg/mL) to exogenously derived human immune cells. […] Supernatants were harvested and analyzed using a multiplex analyte kit (Luminex).

CT26 tumors = assay type: in vivo; details: targeted ADC, intraperitoneal, every 7 days, 3 doses
Description: This example covers in vivo assessments of anti-tumor activity of ADCs with TLR7/8 agonists. An in vivo syngeneic system was used to assess the ability of the ADCs having TLR ⅞ agonists as the payload to induce immune responses and drive an anti-tumor immune response using a subcutaneous, heterotopic mouse colon carcinoma model (a CT26 system). Female Balb/c mice were implanted with 1×10^5 CT26 cells sub-cutaneously in the flank on day 0. When mean tumor size of 100 mm^3 (measured using the formula: Volume (mm^3)=0.5*Length*Width^2 where length is the longer dimension) was reached, the mice were randomized into treatment groups of 6 mice per group. Animals were then treated intraperitoneally with the indicated treatment every 7 days, for 3 doses total. Stock concentrations of the ADCs were diluted to the appropriate concentration and injected into animals in 100 μL volumes. Tumor length and width and mouse weights were measured throughout the study and tumor volume was calculated using the formula above. Animals were followed until tumor volume reached 1000 mm^3, when animals were then euthanized.

MC38 tumors = experiment: MC38 colon tumor model in C57BL/6 mice; assay type: in vivo, mouse; details: ADC, carboxylic acid vs methyl ester payload, FIG. 12
Protocol: The activity of several conjugated TLR7/8 molecules in both methyl ester and carboxylic acid forms were also assessed in another colon tumor model, MC38. Results of this analysis are summarized in FIG. 12, which the top panel summarizing tumor volume and the bottom panel providing percent survival across 9 treatment groups. […] However, the increase in anti-tumor activity of the carboxylic acid version of the ADC was much more pronounced in this model for the S18a (methyl ester) or S18b (carboxylic acid) TLR7/8 agonist.
To assess if the small molecule and conjugated agonist are specific for the toll like 7 and/or 8 receptors, various small molecules and ADCs were tested on TLR7 receptor knockout animals. As TLR8 is normally nonfunctional in mice, in TLR7−/− mice there is a total loss of ability to respond to compounds that work through these receptors. To assess whether compounds are TLR7/8 specific, MC38 tumors were implanted into either wild type C57B1/6 mice or cognate TLR7−/− mice. When tumors reached ˜50 mm3 mice animals were treated q7dx3 with vehicle (PBS), 1 mg/kg of the free small molecule S18a, the isotype/non-targeted ADC with cmpd 9 or with an immune cell targeted version of the cmpd 9 IDC.

[1] = SEC analysis of ADC aggregation (high molecular weight species) in plasma; assay type: physicochemical; details: ADC incubated with human or mouse plasma, FIG. 9
Protocol: Method I: Size-exclusion chromatography (SEC) was performed with a Waters ACQUITY UPLC system and an Acquity UPLC Protein BEH SEC Column, (200 Å, 1.7 μm, 4.6×150 mm, PN: 186005225). The mobile phase used was 7.5% isopropanol in 92.5% aqueous (25 mM sodium phosphate, 350 mM NaCl, pH 6.8), v/v. Elution was performed isocratically at a flow rate of 0.4 mL/min at ambient temperature.
To determine if any of these differences in activity potentially resulted from increases in aggregation as a subsequent result of changes in charge, SEC analysis was performed. ADCs containing either S18a (methyl ester) or S18b (carboxylic acid) were incubated with both human or mouse plasma and assessed for the formation of high molecular weight species (HMW) over time.

Renca tumors = experiment: Renca kidney carcinoma model in Balb/c mice; assay type: in vivo, mouse; details: ADC, q7dx3 from ~100 mm^3, FIG. 14
Protocol: The difference in anti-tumor activity of the S18a and S18b conjugates was also assessed in the Renca kidney model. In this model, mice bearing Renca tumors were treated q7dx3 when tumors reached ˜100 mm^3 as indicated, and followed for mean group tumor growth (FIG. 14, top) and survival (FIG. 14, bottom) over time.
This example covers cancer treatment with EphA2 targeted TLR agonists. […] Balb/c mice were implanted with Renca tumor cells and when cells reached 100 mm^3 they were treated Q7dx3 treatments with 2.4 mg/kg of the indicated IDC, either non targeting isotype or an EphA2 targeting mAb.

CCCCc1nc2c(N)nc3cc(C(=O)OC)ccc3c2n1CCc1ccc(CN)cc1 [S76a]
EC50 (hTLR7): 3.44 µM

CCCCc1nc2c(N)nc3cc(C(=O)OC)ccc3c2n1CCCCCN(C)C [S77a]
EC50 (hTLR7): 2.82 µM

CCCCc1nc2c(N)nc3cc(C(=O)O)ccc3c2n1CCN [S11b]
IFNα, IL1β, MIP1β, TNFα induction, C7 carboxylic acid vs parent C7 methyl ester (primary human PBMCs): markedly lower potency and activity than its corresponding parent methyl ester compound
MIP1β and TNFα responses (primary human PBMCs): lower activities than their methyl ester counterparts
potency at activating immune cells vs methyl ester analogues (human immune cells): just as, if not more potent at activating immune cells than their methyl ester analogues

CCCCc1nc2c(N)nc3cc(C(=O)O)ccc3c2n1Cc1ccc(CNC(=O)OCc2ccc(O[C@H]3O[C@H](CO)[C@@H](O)[C@H](O)[C@@H]3O)c(NC(=O)CCNC(=O)[C@H](CCCCNC(=O)CCOCCOCCOCCOCCOCCOCCOCCOCCOCCOCCOCCOC)NC(=O)CCN3C(=O)C=CC3=O)c2)cc1 [Compound 3, 4-amino-2-butyl-1-(4-(((((3-((S)-44-(3-(2,5-dioxo-2,5-dihydro-1H-pyrrol-1-yl)propanamido)-38,45-dioxo-2,5,8,11,14,17,20,23,26,29,32,35-dodecaoxa-39,46-diazanonatetracontan-49-amido)-4-(((2R,3S,4S,5S,6R)-3,4,5-trihydroxy-6-(hydroxymethyl)tetrahydro-2H-pyran-2-yl)oxy)benzyl)oxy)carbonyl)amino)methyl)benzyl)-1H-imidazo[4,5-c]quinoline-7-carboxylic acid]
tumor growth delay and survival (CT26 tumors): profound tumor growth delay
tumor growth delay and survival (MC38 tumors): slight increased survival advantage

CCCCc1nc2c(N)nc3cc(C(=O)O)ccc3c2n1Cc1ccc(CN(C)C)cc1 [S18b]
potency at activating immune cells vs methyl ester analogues (human immune cells): just as, if not more potent at activating immune cells than their methyl ester analogues
aggregation (formation of high molecular weight species over time) [1]: no significant difference in the amounts of aggregation
tumor growth delay and survival (MC38 tumors): distinct tumor growth delay and overall survival benefit
tumor growth and survival (Renca tumors): very good tumor growth delay and superior overall survival advantage

CCCCc1nc2c(N)nc3cc(C(=O)O)ccc3c2n1Cc1ccc(CN)cc1 [S8b, 4-amino-1-(4-(aminomethyl)benzyl)-2-butyl-1H-imidazo[4,5-c]quinoline-7-carboxylic acid]
IFNα, IL1β, MIP1β, TNFα induction, C7 carboxylic acid vs parent C7 methyl ester (primary human PBMCs): markedly lower potency and activity than its corresponding parent methyl ester compound
MIP1β and TNFα responses (primary human PBMCs): lower activities than their methyl ester counterparts
potency at activating immune cells vs methyl ester analogues (human immune cells): just as, if not more potent at activating immune cells than their methyl ester analogues

COCCc1nc2c(N)nc3cc(C(=O)OC)ccc3c2n1Cc1ccc(CN)cc1 [S78a]
EC50 (hTLR7): 3.78 µM
